Experimental data taken from PubChem BioAssay AID248 (DTP/NCI, 2004).
Values joined by “and” are separate entries in the source; they are usually repeats but may differ in a detail not shown here. Equal values may be shown once. Toxic doses and inconclusive results are not listed. Cut-off read from the data, not from the text of the source: active = T/C of 150% or more; inactive = T/C below 125%.

System: L1210 leukemia ip in BDF1 mice, survival T/C
Experiment: NCI In Vivo Anticancer Drug Screen. Data for tumor model L1210 Leukemia (intraperitoneal) in B6D2F1 (BDF1) mice
Conditions: endpoint: mean survival time, higher = longer survival
Outline: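 Mice bearing the transplanted tumor received compound or vehicle. Survival of the treated group was divided by that of the vehicle-treated control group to give the ratio.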

[1] = dose: 100.0 mg/kg/injection, schedule: Q01DX001 (ip), vehicle: saline
[2] = dose: 200.0 mg/kg/injection, schedule: Q01DX001 (ip), vehicle: saline
[3] = dose: 400.0 mg/kg/injection, schedule: Q01DX001 (ip), vehicle: saline
[4] = dose: 100.0 mg/kg/injection, schedule: Q01DX001 (ip), vehicle: Klucel (hydroxypropylcellulose) (HPC)
[5] = dose: 200.0 mg/kg/injection, schedule: Q01DX001 (ip), vehicle: Klucel (hydroxypropylcellulose) (HPC)
[6] = dose: 100.0 mg/kg/injection, schedule: Q04DX003 (ip), vehicle: Klucel (hydroxypropylcellulose) (HPC)
[7] = dose: 200.0 mg/kg/injection, schedule: Q04DX003 (ip), vehicle: Klucel (hydroxypropylcellulose) (HPC)
[8] = dose: 400.0 mg/kg/injection, schedule: Q01DX001 (ip), vehicle: Klucel (hydroxypropylcellulose) (HPC)
[9] = dose: 400.0 mg/kg/injection, schedule: Q04DX003 (ip), vehicle: Klucel (hydroxypropylcellulose) (HPC)
[10] = dose: 75.0 mg/kg/injection, schedule: Q01DX001 (ip), vehicle: saline
[11] = dose: 150.0 mg/kg/injection, schedule: Q01DX001 (ip), vehicle: saline
[12] = dose: 300.0 mg/kg/injection, schedule: Q01DX001 (ip), vehicle: saline
[13] = dose: 100.0 mg/kg/injection, schedule: Q01DX009 (ip), vehicle: Klucel (hydroxypropylcellulose) (HPC)
[14] = dose: 200.0 mg/kg/injection, schedule: Q01DX009 (ip), vehicle: Klucel (hydroxypropylcellulose) (HPC)
[15] = dose: 400.0 mg/kg/injection, schedule: Q01DX009 (ip), vehicle: Klucel (hydroxypropylcellulose) (HPC)
[16] = dose: 100.0 mg/kg/injection, schedule: Q01DX001 (ip), vehicle: carboxymethylcellulose (CMC)
[17] = dose: 200.0 mg/kg/injection, schedule: Q01DX001 (ip), vehicle: carboxymethylcellulose (CMC)
[18] = dose: 100.0 mg/kg/injection, schedule: Q04DX002 (ip), vehicle: Klucel (hydroxypropylcellulose) (HPC)
[19] = dose: 200.0 mg/kg/injection, schedule: Q04DX002 (ip), vehicle: Klucel (hydroxypropylcellulose) (HPC)
[20] = dose: 400.0 mg/kg/injection, schedule: Q04DX002 (ip), vehicle: Klucel (hydroxypropylcellulose) (HPC)
[21] = dose: 100.0 mg/kg/injection, schedule: Q01DX009 (ip), vehicle: saline with Tween-80
[22] = dose: 200.0 mg/kg/injection, schedule: Q01DX009 (ip), vehicle: saline with Tween-80
[23] = dose: 50.0 mg/kg/injection, schedule: Q01DX001 (ip), vehicle: saline
[24] = dose: 25.0 mg/kg/injection, schedule: Q01DX009 (ip), vehicle: Klucel (hydroxypropylcellulose) (HPC)

Measured: T/C

O=C(CSc1ccc([N+](=O)[O-])cc1)c1ccc(Br)cc1
inactive: [1] 87 % of control | dose: 100.0 mg/kg/injection, schedule: Q04DX003 (ip), vehicle: saline 95 % of control | [2] 87 % of control | dose: 200.0 mg/kg/injection, schedule: Q04DX003 (ip), vehicle: saline 90 % of control | [3] 94 % of control | dose: 400.0 mg/kg/injection, schedule: Q04DX003 (ip), vehicle: saline 90 % of control

Cc1csc2[nH]c(=O)[nH]c(=O)c12
inactive: dose: 100.0 mg/kg/injection, schedule: Q01DX009 (ip), vehicle: water 104 % of control | dose: 100.0 mg/kg/injection, schedule: Q04DX003 (ip), vehicle: water 112 % of control | dose: 200.0 mg/kg/injection, schedule: Q04DX003 (ip), vehicle: water 115 % of control | dose: 400.0 mg/kg/injection, schedule: Q01DX009 (ip), vehicle: water 86 % of control | dose: 400.0 mg/kg/injection, schedule: Q04DX003 (ip), vehicle: water 118 % of control

O=C1C=C(N2C3C4CCC(C4)C32)C(=O)C=C1c1ccccc1 (configuration not stated)
inactive: dose: 50.0 mg/kg/injection, schedule: Q01DX001 (ip), vehicle: Klucel (hydroxypropylcellulose) (HPC) 96 % of control | [4] 97 % of control | [5] 94 % of control

O=C(c1ccccc1)C1OC(=O)C1c1ccccc1 (configuration not stated)
inactive: [4] 97 % of control | [6] 101 % of control | [5] 92 % of control | [7] 101 % of control | [8] 103 % of control | [9] 97 % of control

CCCCC(=O)N/N=C/c1ccccc1Cl
inactive: [1] 102 % of control | [2] 104 % of control

N#Cc1ccccc1N=NNc1ccc([N+](=O)[O-])cc1
inactive: [10] 108 % of control | [11] 104 % of control | [12] 98 % of control

Cc1ccc(NS(=O)(=O)c2ccc(F)cc2)cc1C
inactive: [13] 95 % of control | [6] 95 % of control | [14] 95 % of control | [7] 105 % of control | [15] 97 % of control | [9] 101 % of control

COc1ccc(CN(C)C)c(C(O)c2ccccc2)c1 (configuration not stated)
inactive: dose: 50.0 mg/kg/injection, schedule: Q01DX001 (ip), vehicle: carboxymethylcellulose (CMC) 101 % of control | [16] 103 % of control | [17] 103 % of control

Cc1cccc(NC(=O)Oc2ccccc2C(N)=O)c1
inactive: [4] 94 % of control | [13] 94 % of control | [18] 94 % of control and 100 % of control | [6] 95 % of control | [5] 95 % of control | [14] 96 % of control | [19] 98 % of control | [7] 95 % of control | [8] 106 % of control | [15] 91 % of control and 92 % of control | [20] 94 % of control and 96 % of control | [9] 93 % of control

COC(=O)CC(=O)C(C)(C)C
inactive: dose: 50.0 mg/kg/injection, schedule: Q01DX009 (ip), vehicle: saline with Tween-80 101 % of control | [21] 101 % of control | [22] 101 % of control

O=C(O)C(=O)C(Cl)Br (configuration not stated)
inactive: dose: 12.5 mg/kg/injection, schedule: Q01DX001 (ip), vehicle: saline 111 % of control | dose: 25.0 mg/kg/injection, schedule: Q01DX001 (ip), vehicle: saline 118 % of control | [23] 111 % of control

CCCCCCCCCCCCCCCCCC[n+]1ccccc1
inactive: dose: 0.09 mg/kg/injection, schedule: Q01DX009 (ip), vehicle: saline with Tween-80 89 % of control | dose: 0.19 mg/kg/injection, schedule: Q01DX009 (ip), vehicle: saline with Tween-80 99 % of control | dose: 0.39 mg/kg/injection, schedule: Q01DX009 (ip), vehicle: saline with Tween-80 96 % of control

CN(C)C(=S)N1C(=O)C2C3CCC(O3)C2C1=O (configuration not stated)
inactive: dose: 3.13 mg/kg/injection, schedule: Q01DX009 (ip), vehicle: saline with Tween-80 102 % of control | dose: 6.25 mg/kg/injection, schedule: Q01DX009 (ip), vehicle: saline with Tween-80 98 % of control | dose: 6.25 mg/kg/injection, schedule: Q04DX002 (ip), vehicle: saline with Tween-80 106 % of control | dose: 12.5 mg/kg/injection, schedule: Q04DX002 (ip), vehicle: saline with Tween-80 87 % of control

Cc1[nH]c(=S)[nH]c(=O)c1CCC(=O)O
inactive: [21] 96 % of control | [6] 94 % of control | [22] 98 % of control | [7] 102 % of control | dose: 400.0 mg/kg/injection, schedule: Q01DX009 (ip), vehicle: saline with Tween-80 98 % of control | [9] 102 % of control

CCN1CCCN(CC)C1=O
inactive: [18] 96 % of control | [19] 96 % of control | [20] 90 % of control

Cc1ccccc1S(=O)(=O)NC1c2ccccc2Oc2ccccc21
inactive: [10] 96 % of control | dose: 75.0 mg/kg/injection, schedule: Q01DX009 (ip), vehicle: saline 86 % of control | [11] 86 % of control | [12] 86 % of control

NC(=S)NN=C1CCN(Cc2ccccc2)CC1
inactive: [23] 95 % of control | [1] 101 % of control

CC(=O)Nc1cccc2c1C(=O)c1ccccc1-2
inactive: dose: 100.0 mg/kg/injection, schedule: Q04DX003 (ip), vehicle: saline with Tween-80 102 % of control | dose: 200.0 mg/kg/injection, schedule: Q04DX003 (ip), vehicle: saline with Tween-80 112 % of control | dose: 400.0 mg/kg/injection, schedule: Q04DX003 (ip), vehicle: saline with Tween-80 102 % of control

CC1(C)C(=O)N(Cl)C(=O)N1Cl
inactive: dose: 3.12 mg/kg/injection, schedule: Q01DX009 (ip), vehicle: Klucel (hydroxypropylcellulose) (HPC) 90 % of control | dose: 3.13 mg/kg/injection, schedule: Q01DX001 (ip), vehicle: saline sonified 90 % of control | dose: 3.13 mg/kg/injection, schedule: Q01DX009 (ip), vehicle: saline 99 % of control | dose: 6.25 mg/kg/injection, schedule: Q01DX001 (ip), vehicle: saline sonified 97 % of control | dose: 6.25 mg/kg/injection, schedule: Q01DX009 (ip), vehicle: Klucel (hydroxypropylcellulose) (HPC) 90 % of control | dose: 6.25 mg/kg/injection, schedule: Q01DX009 (ip), vehicle: saline 95 % of control | dose: 12.5 mg/kg/injection, schedule: Q01DX001 (ip), vehicle: saline sonified 95 % of control | dose: 12.5 mg/kg/injection, schedule: Q01DX009 (ip), vehicle: saline 99 % of control | dose: 12.5 mg/kg/injection, schedule: Q04DX002 (ip), vehicle: Klucel (hydroxypropylcellulose) (HPC) 97 % of control | [24] 91 % of control | dose: 25.0 mg/kg/injection, schedule: Q04DX002 (ip), vehicle: Klucel (hydroxypropylcellulose) (HPC) 94 % of control

Cc1c2c(c(C)c3c4c(oc13)CCCC4)C=NCC2
inactive: [16] 95 % of control | [17] 92 % of control | dose: 400.0 mg/kg/injection, schedule: Q01DX001 (ip), vehicle: carboxymethylcellulose (CMC) 92 % of control

CCCc1cc2c(cc1CS(=O)(=O)c1ccccc1)OCO2
inactive: dose: 12.5 mg/kg/injection, schedule: Q01DX009 (ip), vehicle: Klucel (hydroxypropylcellulose) (HPC) 97 % of control | [24] 112 % of control | dose: 50.0 mg/kg/injection, schedule: Q01DX009 (ip), vehicle: Klucel (hydroxypropylcellulose) (HPC) 108 % of control | [13] 101 % of control and 102 % of control | [6] 94 % of control | [14] 102 % of control | [7] 97 % of control | [9] 101 % of control

NC(=O)c1c([N+](=O)[O-])ncn1C1OC(CO)C(O)C1O (configuration not stated)
inactive: [1] 98 % of control | [2] 102 % of control | [3] 96 % of control
